According to patent US5318989A, “Cytotoxic bicyclo [7.3.1.]tridec-4-ene-2,6-diyne compounds and process for the preparation thereof” (Bristol-Myers Squibb Company, priority 1992, dated 1994):
Converted amounts (≈) assume the structure as drawn. “And” between values parts separate entries of the source, which are not always exact repeats. Equal values may be shown once. Read-outs that look alike come from different tables or passages of the source.

How the values were obtained:
P388 leukemia = assay: In vivo activity against transplantable murine P388 leukemia in CDF1 mice; settings: for Survival d.5: day 5; for Med. Survival Time / % T/C: intraperitoneal; for Med. Survival Time: 5 consecutive days from day 1, control 11 d; for % T/C: 5 consecutive days, 125 or greater is significant
Method: The compound of Example 4 was also evaluated against transplantable murine P388 leukemia. CDF1 mice were implanted intraperitoneally with a tumor inoculum of 10^6 cells of P388 leukemia and treated with various doses of the test compound Six mice were used for each dose level and 10 mice were treated with saline to serve as control. The test compound was administered intraperitoneally on 5 consecutive days starting on day 1 after tumor implantation. Antitumor activity is expressed as % T/C which is the ratio of mean survival time (MST) for the drug-treated group to the MST of saline-treated control group.
A compound showing a % T/C of 125 or greater is considered to have significant antitumor activity.

DNA = settings: J. Org. Chem. 1989, 54:2781-2783; J. Am. Chem. Soc. 1989, 111:7638-7641; cited from earlier work
[1] = test system: HCT/VP35 human colon tumor cell line (etoposide-resistant); assay: In vitro cytotoxicity assay; type: cell-based; settings: three determinations
Method: (§1) Compound of Example 4 was evaluated in vitro against three human colon tumor cell lines: HCT-116, HCT/VM46, and HCT/VP35; the latter two are resistant to teniposide and etoposide, respectively. The in vitro cytotoxicity assay involved growing tumor cells on microtitre plates employing established tissue culture methods. The concentration of the test compound required to inhibit cell growth by 50% (IC50) was then determined by four-fold serial dilution technique. In the experiment, etoposide and teniposide were included as positive controls.

[2] = test system: HCT-116 human colon tumor cell line; assay: In vitro cytotoxicity assay; type: cell-based; settings: three determinations
Method: as §1

[3] = test system: HCT/VM46 human colon tumor cell line (teniposide-resistant); assay: In vitro cytotoxicity assay; type: cell-based; settings: three determinations
Method: as §1

[4] = Homo sapiens, HCT/VP35, HCT/VP35, read-out: IC50
[5] = Homo sapiens, HCT-116, HCT-116, read-out: IC50

In the case of “1-Hydroxy-8-[[(2-quinoxolyamino)carbonyl]oxy]-bicyclo[7.3.1]trideca-4,7-diene-2,6-divn-13-one [Example 8]”, the “max. %T/C” value (P388 leukemia; at 15 mg/kg/dose, same protocol) is reported as 145%.
In the case of O=C1CC2C(=O)C(O)(C#CC=CC#CC2O)C1 (centres unmarked) [1,8-dihydroxy-bicyclo[7.3.1]tridec-4-ene-2,6-diyn-11,13-dione], the “DNA cleavage in vitro” value (DNA) is listed as “shown to cleave DNA in vitro”.
In the case of COc1cc([C@@H]2c3cc4c(cc3[C@@H](O[C@@H]3O[C@@H]5CO[C@@H](C)O[C@H]5[C@H](O)[C@H]3O)[C@H]3COC(=O)[C@H]23)OCO4)cc(OC)c1O [Etoposide], the IC50 ([1]; HCT/VP35) is reported as 6.29 µg/mL and 6.75 µg/mL, the IC50 [1, 4] is reported as 5.14 µg/mL (≈ 8.73 µM) and the IC50 ([2]; HCT-116) is reported as 0.128 µg/mL and 0.140 µg/mL. It also gave an IC50 [2, 5] of 0.101 µg/mL (≈ 0.172 µM).
In the case of O=C1C2=CCCC1(O)C#CC=CC#CC2O (centres unmarked) [Example 4, 1,8-Dihydroxy-bicyclo7.3.1]trideca-4,9-diene-2,6-divn-13-one], the IC50 ([1]; HCT/VP35) is reported as 0.042 µg/mL and 0.046 µg/mL and 0.072 µg/mL, the IC50 ([2]; HCT-116) is reported as 0.037 µg/mL and 0.043 µg/mL and < 0.031 µg/mL and the IC50 [3] is reported as < 0.031 µg/mL and 0.047 µg/mL. For the same compound, the “Survival d.5” value (P388 leukemia; 1 mg/kg/dose) was 6/6, the “Med. Survival Time” value (P388 leukemia; 1 mg/kg/dose) was 13 days and the “% T/C” value (P388 leukemia; 1 mg/kg/dose) was 118%. For the same compound, the “Survival d.5” value (P388 leukemia; 2 mg/kg/dose) was 6/6, the “Med. Survival Time” value (P388 leukemia; 2 mg/kg/dose) was 16.5 days and the “% T/C” value (P388 leukemia; 2 mg/kg/dose) was 150%. For the same compound, the “Survival d.5” value (P388 leukemia; 4 mg/kg/dose) was 6/6, the “Med. Survival Time” value (P388 leukemia; 4 mg/kg/dose) was 20.0 days and the “% T/C” value (P388 leukemia; 4 mg/kg/dose) was 182%. For the same compound, the “Survival d.5” value (P388 leukemia; 8 mg/kg/dose) was 6/6, the “number of surviving mice on day 39” value (P388 leukemia; 8 mg/kg/dose, day 39) was 4 mice and the “Med. Survival Time” value (P388 leukemia; 8 mg/kg/dose) was over 39 days. For the same compound, the “% T/C” value (P388 leukemia; 8 mg/kg/dose) was over 355%, the “Survival d.5” value (P388 leukemia; 16 mg/kg/dose) was 6/6 and the “Med. Survival Time” value (P388 leukemia; 16 mg/kg/dose) was 9.5 days. For the same compound, the “% T/C” value (P388 leukemia; 16 mg/kg/dose) was 86%, the “Survival d.5” value (P388 leukemia; 32 mg/kg/dose) was 6/6 and the “Med. Survival Time” value (P388 leukemia; 32 mg/kg/dose) was 7 days. The “% T/C” value (P388 leukemia; 32 mg/kg/dose) was 64% and the “activity against P388 leukemia” value (P388 leukemia; conclusion from Table II) was “high activity against P388 leukemia”.
With O=C(OC1C#CC=CC#CC2(O)CCC=C1C2=O)c1cnc2ccccc2n1 (centres unmarked) [Example 6] the “mouse surviving on day 31” value (P388 leukemia; 20 mg/kg/dose, day 31) was “one” and the “maximum %T/C” value (P388 leukemia; at 20 mg/kg/dose, same protocol) was 235%.
With O=C1C2=CCCC1(O)C#C/C=C\C#CC2 (centres unmarked) [Example 15, 1-Hydroxy-bicylco[7.3.1]trideca-4,9-diene-2,6-diyne-13-one] the “max. %T/C” value (P388 leukemia; at 40 mg/kg/dose, same protocol) was 230%.
With COc1cc([C@@H]2c3cc4c(cc3[C@@H](O[C@@H]3O[C@@H]5CO[C@@H](c6cccs6)O[C@H]5[C@H](O)[C@H]3O)[C@H]3COC(=O)[C@H]23)OCO4)cc(OC)c1O [Teniposide] the IC50 ([1]; HCT/VP35) was 0.091 µg/mL and 0.111 µg/mL, the IC50 [1, 4] was 0.084 µg/mL (≈ 0.128 µM) and the IC50 ([2]; HCT-116) was 0.088 µg/mL and 0.083 µg/mL. The IC50 [2, 5] was 0.077 µg/mL (≈ 0.117 µM), the IC50 ([3]; Homo sapiens, read-out: IC50) was 0.313 µg/mL (≈ 0.477 µM) and the IC50 [3] was 0.237 µg/mL and 0.236 µg/mL.
